{
  "source": "patent US20260085315A1",
  "about": "“POLYNUCLEOTIDE COMPOSITIONS AND METHODS FOR TREATMENT OF CANCER” (APTAH BIO, INC., priority 2023, published 2026)",
  "format_in_all_cases": "in vivo, athymic nude mice",
  "key": {"[1]": {"system": "Human Glioblastoma Cancer (U-87MG) xenograft", "assay": "Human glioblastoma xenograft tumor growth", "details": "for tumor reduction in relation to the negative control: APT20TTMG 20 mg/kg i.v. q3d, TMZ 5 mg/kg p.o. daily", "protocol": "Subcutaneous inoculation of the tumorigenic Human Glioblastoma Cancer Cell line (U-87MG) results in the formation of solid tumor in athymic nude mice. Under pathogen free conditions, the tumor retains its own characteristics and grows using the growth factors supplied by the host animal. The ability of administered ASMO1 to inhibit the growth of tumor can be a valuable tool to evaluate its efficacy as an anti-tumor agent. Measurement of tumor size at defined intervals of time generates data that can be used to calculate various end point parameters derived from tumor and understand the potency of the test compounds.\nHuman glioblastoma cancer cells (U-87MG) were cultured and expanded in EMEM (Eagle's Minimum Essential Medium) supplemented with 10% Fetal Bovine Serum (FBS) at 37° C. and 5% CO2. The cells growing at log phase were harvested by trypsinization and centrifuged for 3 minutes at 800 rpm to form a pellet. The pellet was further washed with PBS. Cell suspension stock was prepared to obtain the required cell count. Before cell inoculation, cell viability was determined using trypan blue. 25 μL of cell suspension was stained with 25 μL of trypan blue and viable cells were counted using Neubauer's chamber. Cell number was adjusted by adding serum free media to achieve desired concentration, i.e., 10×10^7/mL.\nCells were diluted such that the concentration of the cells was 10 million cells/100 μL of serum free medium. Overnight thawed Matrigel and cells with medium were mixed 1:1 and a total volume of 200 μL was injected subcutaneously to the donor animals (n=5) at flank region.\nDonor animals were monitored for solid tumor growth for at least 3-4 weeks. Tumor size was measured using digital caliper (MITUTOYO, Japan, CP-15Mx) and volume was calculated by using the formula: (L*W2)/2. Once the tumor reached required size ˜500 mm^3, the donor animals were humanely sacrificed, the tumor was harvested and fragmented into ˜30 mg size and implanted subcutaneously to experimental animals (n=50) using the device. All the animals was monitored alternate day for tumor growth/size.\nOnce the tumor size reached ˜100 mm^3, animals were selected and randomized by stratification method using tumor size into three groups (G1-G3). Treatment for G1-G3 was initiated at this stage. Each group was comprised of 8 animals.\n• G1 was served as vehicle control group and treated with normal saline at the dose of 5 mL/kg, daily, intravenously for 3 weeks. • G2 was served as Reference Item treated group and treated with TMZ at the dose of 5 mg/kg, p.o., daily for 3 weeks. • G3 was treated with APT20TTMG at the dose of 20 mg/kg, intravenously, every third day (q3d) for 3 weeks.\nBody weight and tumor size were measured weekly twice using digital caliper. At termination, blood was collected through retro-orbital route. Serum/plasma was separated and stored at deep freezer (−20° C.). Post blood collection, animals were humanely sacrificed by CO2 asphyxiation as per latest guidelines issued by CPCSEA. All the vital organ (brain, kidney, liver, lungs, heart) and tumor were dissected out. Vital organs were fixed in 10% NBF and stored. Tumor tissue was dissected out, weighed and portion of tumor tissue was fixed in 10% NBF and another portion is snap frozen and stored at deep freezer (−80° C.).\nAs shown in FIG. 34A-C, tumor fragments from the U-87MG cell line were implanted in the animals and once the tumor size reached ˜100 mm^3 animals were randomized into 3 experimental groups (G1, G2, and G3). G1: Vehicle, (G2) Reference Item Temozolomide, and (G3) APT20TTMG for a total of 22 days. (A) The tumor volume of the animals was measured twice/a week. (B) Animals were weighed throughout the experiment and the change in weight gain compared to pre-treatment weight was plotted. (C) After the euthanasia of the animals, the tumors were removed and weighed."}, "[2]": {"system": "Human Glioblastoma Cancer (U-87MG) xenograft", "assay": "Histopathology of tumor samples with scoring", "set-up": "key to Score: Grade: 1: I; 2: II; 3: III; 4: IV; key to Score: Connective tissue stroma: 1: Minimal Fibrosis; 2: Mild Fibrosis; 3: Moderate Fibrosis; 4: Prominent; key to Score: N:C ratio: 3: High; 2: Low to High; 1: Low; key to Score: Apoptosis / Score: Lipid content: 4: Minimal; 3: Mild; 2: Moderate; 1: Prominent", "details": "individual animals; G3 APT20TTMG, G2 TMZ", "from_the_text": "(§1) The fixed tissues were processed for routine paraffin embedding followed by sectioning (3-6 micron). The sections were stained with hematoxylin and eosin. The prepared slides were examined under microscope by the study pathologist to record histopathological findings in tumor samples, related to capsule formation, cell type, connective tissue stroma, apoptosis, necrosis, lipid content, nucleus-to-cytoplasmic (N:C) ratio, nuclei mitotic figures, tumor grade, and level of differentiation. Each histopathological finding and tumor volume were assigned a score ranging from 1 to 4 (Table 7). The sum of these scores for each sample was used to infer the tumor aggressiveness."}, "[3]": {"system": "Human Glioblastoma Cancer (U-87MG) xenograft", "assay": "Histopathology of tumor samples with scoring", "set-up": "key: 1: Few; 2: Moderate; 3: Large", "details": "individual animals; G3 APT20TTMG, G2 TMZ", "from_the_text": "as §1"}, "[4]": {"system": "Human Glioblastoma Cancer (U-87MG) xenograft", "assay": "Histopathology of tumor samples with scoring", "set-up": "key: 4: Minimal; 3: Mild; 2: Moderate; 1: Prominent", "details": "individual animals; G3 APT20TTMG, G2 TMZ", "from_the_text": "as §1"}, "[5]": {"system": "Human Glioblastoma Cancer (U-87MG) xenograft", "assay": "Histopathology of tumor samples with scoring", "set-up": "key: 1: Minimal Fibrosis; 2: Mild Fibrosis; 3: Moderate Fibrosis; 4: Prominent", "details": "individual animals; G3 APT20TTMG, G2 TMZ", "from_the_text": "as §1"}},
  "note": "Several values for one entry are separate records, joined by “and”; a condition that tells them apart may be missing. Identical values can stand only once. Entries after “also recorded” stand apart in the source; their conditions may differ.",
  "data": [
    {"compound": "Cn1nnc2c(C(N)=O)ncn2c1=O", "note": "[TMZ, Temozolomide, reference compound]", "values": [
      {"measurement": "tumor reduction in relation to the negative control", "setting": "[1]; day 20", "value": "41.3±11.1", "unit": "%"},
      {"measurement": "tumor reduction in relation to the negative control", "setting": "[1]; day 22", "value": "31.1±13.4", "unit": "%"},
      {"measurement": "Volume (tumor)", "setting": "[1]; individual animals, G3 APT20TTMG, G2 TMZ", "value": "Volume 1593.8; also recorded: Volume 113.1; also recorded: Volume 937.9; also recorded: Volume 339.1; also recorded: Volume 1447.2; also recorded: Volume 830.6; also recorded: Volume 1277.9; also recorded: Volume 1479.7"},
      {"measurement": "Histopathological findings: Grade", "setting": "[2]", "value": "Grade- 2; also recorded: Grade- 3"},
      {"measurement": "Score: Apoptosis", "setting": "[2]", "value": "3 (7×) and 2"},
      {"measurement": "Score: Connective tissue stroma", "setting": "[2]", "value": "3 (2×) and 2 (5×) and 1"},
      {"measurement": "Score: Grade", "setting": "[2]", "value": "2 (5×) and 3 (3×)"},
      {"measurement": "Score: Lipid content", "setting": "[2]", "value": "3 (4×) and 2 and 1 (3×)"},
      {"measurement": "Score: N:C ratio", "setting": "[2]", "value": 2},
      {"measurement": "Score: Volume Tumor", "setting": "[2]", "value": "4 (>1500) and 1 (<500) (2×) and 2 (500-1000) (2×) and 3 (1000-1500) (3×)"},
      {"measurement": "Score: Mitotic figures", "setting": "[3]", "value": "3 (4×) and 1 (4×)"},
      {"measurement": "Score: Necrosis", "setting": "[4]", "value": 3},
      {"measurement": "Score: Necrosis", "setting": "[5]", "value": 4}
    ]}
  ]
}
